Values quoted from earlier work in publication PMC5384962, “First-in-human studies of seletalisib, an orally bioavailable small-molecule PI3Kδ inhibitor for the treatment of immune and inflammatory diseases” (European Journal of Clinical Pharmacology, 2017).

Parameters: method as in ref 29 = [29]; 29. Infinity Pharmaceuticals (2015) Press release: Infinity reports topline results from Phase 2 study of duvelisib in rheumatoid arthritis.
Conditions: patients with moderate-to-severe RA; cited from earlier work

For `C[C@H](Nc1ncnc2nc[nH]c12)c1cc2cccc(Cl)c2c(=O)n1-c1ccccc1` [duvelisib], the “phase II primary endpoint (ACR20 at week 12)” value is given as “failed to meet its phase II study primary endpoint”.
